Source: publication PMC9532951, “Identification and characterization of a novel SNAT2 (SLC38A2) inhibitor reveals synergy with glucose transport inhibition in cancer cells” (Frontiers in Pharmacology, 2022)
Values joined by “and” are separate entries in the source; they are usually repeats but may differ in a detail not shown here. Identical values can stand only once.

What follows are molecules tested on SNAT1/2 (assay: FMP assay: depolarisation by amino acid substrates in amino acid depleted HCC1806 cells). Conditions: 1 mM.
Assay type: cell-based, human
Description: The FLIPR Membrane Potential Blue Explorer Kit (Molecular Devices) was used to characterise inhibitors and to optimise a high-throughput compound screen. Cells were seeded at approximately 60,000 cells/well on a 96-well plate and allowed to attach and grow overnight in a cell incubator. […] Cells were then washed once with mHBSS and incubated with 50 µl of the mHBSS-resuspended FMP assay dye and 50 µl of mHBSS (with or without inhibitors) and incubated at room temperature for 30 min. The plate was then placed in an EnSpire Multimode plate reader (PerkinElmer) and four sequential measurements of fluorescence were recorded as a baseline reference. Immediately after the baseline measurements were taken, 25 µl of 5 mM glutamine dissolved in mHBSS was injected into each well and the plate was shaken orbitally for 5 s before a series of consecutive fluorescence measurements were taken. The excitation wavelength was set to 530 nm and the emission was detected at 565 nm. […] After the assay was complete, the liquid content of the plate was carefully removed, and the cell monolayer inspected to ensure it remained intact throughout the course of the assay.
With `C[C@H](N)C(=O)O` [Alanine] the “FMP response as substrate” value was “strongest response”. `NCC(=O)O` [Glycine] was tested, and the “FMP response as substrate” value was “strongest response”. In the case of `CC(C)C[C@H](N)C(=O)O` [Leucine], the “FMP response as substrate” value is reported as “weak signal”.

Same assay, conditions: amino acid 1 mM final; t=0 s
For `N=C(N)NCCC[C@H](N)C(=O)O` [Arginine], the FMP fluorescence reading was 57601 and 55451 and 44145. `C[C@H](N)C(=O)O` [Alanine] was tested, and the FMP fluorescence reading was 54596 and 53457 and 39829. In the case of `NCC(=O)O` [Glycine], the FMP fluorescence reading is reported as 44899 and 49024 and 38114. With `CC(C)C[C@H](N)C(=O)O` [Leucine] the FMP fluorescence reading was 61522 and 51455 and 48802. `N[C@@H](CCC(=O)O)C(=O)O` [Glutamate] was tested, and the FMP fluorescence reading was 60032 and 51875 and 43598. For `NC(=O)CCC(N)C(=O)O` (stereo in doubt) [D-glutamine], the FMP fluorescence reading was 42839 and 39003 and 33523.

Same assay, conditions: amino acid 1 mM final; t=15 s
For `N=C(N)NCCC[C@H](N)C(=O)O` [Arginine], the FMP fluorescence reading was 59785 and 58453 and 46579. For `C[C@H](N)C(=O)O` [Alanine], the FMP fluorescence reading was 99809 and 107431 and 86655. For `NCC(=O)O` [Glycine], the FMP fluorescence reading was 85173 and 99097 and 84032. With `CC(C)C[C@H](N)C(=O)O` [Leucine] the FMP fluorescence reading was 88098 and 66521 and 74458. In the case of `N[C@@H](CCC(=O)O)C(=O)O` [Glutamate], the FMP fluorescence reading is reported as 69207 and 54669 and 51909. With `NC(=O)CCC(N)C(=O)O` (stereo in doubt) [D-glutamine] the FMP fluorescence reading was 50034 and 45149 and 38644.

Same assay, conditions: amino acid 1 mM final; t=30 s
`N=C(N)NCCC[C@H](N)C(=O)O` [Arginine] was tested, and the FMP fluorescence reading was 60283 and 58803 and 46849. In the case of `C[C@H](N)C(=O)O` [Alanine], the FMP fluorescence reading is reported as 104988 and 111613 and 89183. `NCC(=O)O` [Glycine] was tested, and the FMP fluorescence reading was 91215 and 103676 and 87874. With `CC(C)C[C@H](N)C(=O)O` [Leucine] the FMP fluorescence reading was 89784 and 72558 and 75976. In the case of `N[C@@H](CCC(=O)O)C(=O)O` [Glutamate], the FMP fluorescence reading is reported as 69328 and 57256 and 51957. For `NC(=O)CCC(N)C(=O)O` (stereo in doubt) [D-glutamine], the FMP fluorescence reading was 50270 and 45056 and 39117.

Same assay, conditions: amino acid 1 mM final; t=45 s
In the case of `N=C(N)NCCC[C@H](N)C(=O)O` [Arginine], the FMP fluorescence reading is reported as 60859 and 58896 and 47284. With `C[C@H](N)C(=O)O` [Alanine] the FMP fluorescence reading was 107389 and 114043 and 90927. With `NCC(=O)O` [Glycine] the FMP fluorescence reading was 94947 and 105684 and 90110. With `CC(C)C[C@H](N)C(=O)O` [Leucine] the FMP fluorescence reading was 91395 and 75844 and 77135. For `N[C@@H](CCC(=O)O)C(=O)O` [Glutamate], the FMP fluorescence reading was 69976 and 58306 and 52382. For `NC(=O)CCC(N)C(=O)O` (stereo in doubt) [D-glutamine], the FMP fluorescence reading was 50350 and 45753 and 39233.

Same assay, conditions: amino acid 1 mM final; t=60 s
`N=C(N)NCCC[C@H](N)C(=O)O` [Arginine] was tested, and the FMP fluorescence reading was 61207 and 59368 and 47582. In the case of `C[C@H](N)C(=O)O` [Alanine], the FMP fluorescence reading is reported as 109154 and 114952 and 91569. `NCC(=O)O` [Glycine] was tested, and the FMP fluorescence reading was 97113 and 106636 and 90762. `CC(C)C[C@H](N)C(=O)O` [Leucine] was tested, and the FMP fluorescence reading was 92447 and 78186 and 77607. For `N[C@@H](CCC(=O)O)C(=O)O` [Glutamate], the FMP fluorescence reading was 70448 and 59203 and 52416. In the case of `NC(=O)CCC(N)C(=O)O` (stereo in doubt) [D-glutamine], the FMP fluorescence reading is reported as 50602 and 45748 and 39437.

Same assay, conditions: amino acid 1 mM final; t=75 s
With `N=C(N)NCCC[C@H](N)C(=O)O` [Arginine] the FMP fluorescence reading was 60824 and 59447 and 47575. With `C[C@H](N)C(=O)O` [Alanine] the FMP fluorescence reading was 110049 and 115127 and 91618. `NCC(=O)O` [Glycine] was tested, and the FMP fluorescence reading was 98961 and 107619 and 91458. `CC(C)C[C@H](N)C(=O)O` [Leucine] was tested, and the FMP fluorescence reading was 93485 and 79454 and 77906. In the case of `N[C@@H](CCC(=O)O)C(=O)O` [Glutamate], the FMP fluorescence reading is reported as 70747 and 59679 and 52622. With `NC(=O)CCC(N)C(=O)O` (stereo in doubt) [D-glutamine] the FMP fluorescence reading was 50996 and 45609 and 39481.

Same assay, conditions: amino acid 1 mM final; t=90 s
In the case of `N=C(N)NCCC[C@H](N)C(=O)O` [Arginine], the FMP fluorescence reading is reported as 61207 and 59194 and 47872. `C[C@H](N)C(=O)O` [Alanine] was tested, and the FMP fluorescence reading was 110411 and 114906 and 91021. With `NCC(=O)O` [Glycine] the FMP fluorescence reading was 100150 and 108044 and 90972. In the case of `CC(C)C[C@H](N)C(=O)O` [Leucine], the FMP fluorescence reading is reported as 93344 and 79903 and 78344. In the case of `N[C@@H](CCC(=O)O)C(=O)O` [Glutamate], the FMP fluorescence reading is reported as 70473 and 59687 and 53012. `NC(=O)CCC(N)C(=O)O` (stereo in doubt) [D-glutamine] was tested, and the FMP fluorescence reading was 51179 and 45923 and 39430.

Same assay, conditions: amino acid 1 mM final; t=105 s
`N=C(N)NCCC[C@H](N)C(=O)O` [Arginine] was tested, and the FMP fluorescence reading was 61703 and 59566 and 47735. `C[C@H](N)C(=O)O` [Alanine] was tested, and the FMP fluorescence reading was 110237 and 114204 and 90013. In the case of `NCC(=O)O` [Glycine], the FMP fluorescence reading is reported as 99878 and 107571 and 90946. With `CC(C)C[C@H](N)C(=O)O` [Leucine] the FMP fluorescence reading was 93716 and 80571 and 78223. `N[C@@H](CCC(=O)O)C(=O)O` [Glutamate] was tested, and the FMP fluorescence reading was 70925 and 60367 and 52735. For `NC(=O)CCC(N)C(=O)O` (stereo in doubt) [D-glutamine], the FMP fluorescence reading was 51145 and 45682 and 40002.

Same assay, conditions: amino acid 1 mM final; t=120 s
In the case of `N=C(N)NCCC[C@H](N)C(=O)O` [Arginine], the FMP fluorescence reading is reported as 61529 and 59552 and 47812. With `C[C@H](N)C(=O)O` [Alanine] the FMP fluorescence reading was 109638 and 112786 and 88869. For `NCC(=O)O` [Glycine], the FMP fluorescence reading was 99987 and 106851 and 90990. With `CC(C)C[C@H](N)C(=O)O` [Leucine] the FMP fluorescence reading was 93656 and 80831 and 77995. `N[C@@H](CCC(=O)O)C(=O)O` [Glutamate] was tested, and the FMP fluorescence reading was 71220 and 60249 and 53084. With `NC(=O)CCC(N)C(=O)O` (stereo in doubt) [D-glutamine] the FMP fluorescence reading was 51340 and 46043 and 40162.

Same assay, conditions: amino acid 1 mM final; t=135 s
`N=C(N)NCCC[C@H](N)C(=O)O` [Arginine] was tested, and the FMP fluorescence reading was 61459 and 60027 and 47987. With `C[C@H](N)C(=O)O` [Alanine] the FMP fluorescence reading was 108521 and 111868 and 87878. `NCC(=O)O` [Glycine] was tested, and the FMP fluorescence reading was 99765 and 106361 and 89148. `CC(C)C[C@H](N)C(=O)O` [Leucine] was tested, and the FMP fluorescence reading was 93514 and 80690 and 77322. `N[C@@H](CCC(=O)O)C(=O)O` [Glutamate] was tested, and the FMP fluorescence reading was 71259 and 60330 and 52832. `NC(=O)CCC(N)C(=O)O` (stereo in doubt) [D-glutamine] was tested, and the FMP fluorescence reading was 51584 and 46357 and 40097.

Same assay, conditions: amino acid 1 mM final; t=-15 s
For `N=C(N)NCCC[C@H](N)C(=O)O` [Arginine], the FMP fluorescence reading was 57812 and 55789 and 44423. For `C[C@H](N)C(=O)O` [Alanine], the FMP fluorescence reading was 54286 and 53641 and 39860. With `NCC(=O)O` [Glycine] the FMP fluorescence reading was 44724 and 48839 and 38339. In the case of `CC(C)C[C@H](N)C(=O)O` [Leucine], the FMP fluorescence reading is reported as 61387 and 51586 and 49166. For `N[C@@H](CCC(=O)O)C(=O)O` [Glutamate], the FMP fluorescence reading was 59967 and 51788 and 43666. In the case of `NC(=O)CCC(N)C(=O)O` (stereo in doubt) [D-glutamine], the FMP fluorescence reading is reported as 43005 and 38805 and 33297.

Same assay, conditions: amino acid 1 mM final; t=-30 s; replicates 1-3
`N=C(N)NCCC[C@H](N)C(=O)O` [Arginine] was tested, and the FMP fluorescence reading was 57675 and 55602 and 44293. In the case of `C[C@H](N)C(=O)O` [Alanine], the FMP fluorescence reading is reported as 53991 and 53679 and 39761. With `NCC(=O)O` [Glycine] the FMP fluorescence reading was 44368 and 48981 and 38101. With `CC(C)C[C@H](N)C(=O)O` [Leucine] the FMP fluorescence reading was 61314 and 51367 and 48860. With `N[C@@H](CCC(=O)O)C(=O)O` [Glutamate] the FMP fluorescence reading was 60239 and 51751 and 43455. `NC(=O)CCC(N)C(=O)O` (stereo in doubt) [D-glutamine] was tested, and the FMP fluorescence reading was 42947 and 39128 and 33746.

What follows are molecules tested on HPAFII cells (assay: Growth assay (IncuCyte confluence), HPAFII). Conditions: CB-839 10uM, replicates 1-3.
Assay type: cell-based, human
Design: key to Growth (Figure 6A) / cell confluence (Figure 6F): % confluence
Description: (§1) Cells were seeded on 96-well flat bottom plates at approximately 3000 cells/well and incubated in growth medium (DMEM/F12 supplemented with 10% FBS, 2 mM glutamine) for 24 h. The next day, the growth medium was aspirated and exchanged with 300 μL/well of growth medium containing compounds at the indicated concentration. For live cell analysis, plates were placed in the IncuCyte system (Essen Bioscience), which was housed in a cell incubator (37°C, humidified atmosphere composed of 95% air and 5% CO2) and confluence measured at 6-h intervals or at the assay endpoint when untreated control cells reached a confluency >90%. Antibiotics (10 U/mL penicillin and 10 μg/ml streptomycin) were included in the treatment solutions.
(§2) Growth curves were generated using the Gompertz function of OriginPro software: y=ae^−e^(−k(x−xc))
(§3) Where a is the maximum confluence or upper asymptote, k is the growth rate coefficient, xc is the time point at which 50% confluence is reached (inflection point) and e is Euler’s number. Cell growth data are shown as % confluence.
(§4) Synergism between drug combinations was quantified using ZIP synergy scoring as calculated by SynergyFinder ([Yadav et al., 2015]).
`O=C(Cc1cccc(OC(F)(F)F)c1)Nc1ccc(CCCCc2nnc(NC(=O)Cc3ccccn3)s2)nn1` [CB-839] was tested, and the “cell confluence (Figure 6F)” value was 88.1 and 96.7 and 88.9.

Each molecule was assayed on MDA-MB-231 cells (assay: Growth assay (IncuCyte confluence), MDA-MB-231). Conditions: MDA-MB-231; CB-839 10uM; replicates 1-3.
Assay type: cell-based, human
Design: key to Growth (Figure 6A) / cell confluence (Figure 6F): % confluence
Description: as §1, §2, §3, §4
For `O=C(Cc1cccc(OC(F)(F)F)c1)Nc1ccc(CCCCc2nnc(NC(=O)Cc3ccccn3)s2)nn1` [CB-839], the “cell confluence (Figure 6F)” value was 98.45 and 98.5 (2×).
